Key:
[1] = test system: LC3-II conversion in PC12 cells; assay: Western blot of autophagic marker protein LC3 conversion; assay type: cell-based
Protocol: Detection of autophagic marker protein LC3 conversion. After drug treatments with or without autophagy inhibitor ([…] E64D and pepstain A), cells were harvested and lysed in RIPA buffer (Cell Signaling Technologies Inc., Beverly, Mass.). The cell lysates were then resolved by SDS-PAGE. After electrophoresis, the proteins from SDS-PAGE were transferred to nitrocellulose membrane which was then blocked with 5% non-fat dried milk for 60 minutes. The membrane was then incubated with LC3 primary antibodies (1:1000) in TBST overnight at 4° C. After that, the membrane was further incubated with HRP-conjugated secondary antibodies for 60 minutes. Finally, protein bands were visualized by using the ECL Western Blotting Detection Reagents (Invitrogen, Paisley, Scotland, UK).

[2] = test system: Atg7-knockout mouse embryonic fibroblasts; assay: GFP-LC3 puncta in Atg7 deficient MEFs; assay type: cell-based
Protocol: Quantification of autophagy GFP-LC3 Puncta in Atg7 wild type and deficient MEFs. GFP-LC3 puncta formation was quantified as described previously. In brief, both Atg7 wild-type and deficient mouse embryonic fibroblasts (MEFs) grown on coverslips in a 6-well plate were treated with indicated concentrations of Onjisaponin B. The cells were then fixed in 4% paraformaldehyde for 20 minutes at room temperature and then rinsed with PBS. Slides were mounted with FluorSave™ mounting media (Calbiochem, San Diego, Calif.) and examined by fluorescence microscopy. The number of GFP-positive cells with GFP-LC3 puncta formation was examined under the Nikon ECLIPSE 80i microscope. Representative images were captured with CCD digital camera Spot RT3™ (Diagnostic Instruments, Inc., Melville, N.Y.). To quantify for autophagy, the percentage of cells with punctate GFP-LC3 fluorescence was calculated by counting the number of the cells with punctate GFP-LC3 fluorescence in GFP-positive cells. A minimum of 150 cells from 3 randomly selected fields was scored.

[3] = test system: PC12 cells expressing GFP-LC3; assay: GFP-LC3 puncta in the presence of specific inhibitors; assay type: cell-based, rat; conditions: 12 hours
Protocol: Quantification of Onjisaponin B-mediated autophagy in the presence of specific inhibitors. GFP-LC3 puncta formation was quantified as described previously. In brief, PC12 cells expressing GFP-LC3 were treated with Onjisaponin B (Onji, 25 μM) in the presence of AMPK inhibitor (compound C) (CC, 5 μM) or 3-Methyladenine (3-MA, 5 mM) for 12 hours. The cells were then fixed in 4% paraformaldehyde for 20 minutes at room temperature and then rinsed with PBS. Slides were mounted with FluorSave™ mounting media (Calbiochem) and examined by fluorescence microscopy. To quantify for autophagy, the percentage of cells with punctate GFP-LC3 fluorescence was calculated by counting the number of the cells with punctate GFP-LC3 fluorescence in GFP-positive cells. A minimum of 150 cells from 3 randomly selected fields was scored.

[4] = test system: mutant huntingtin EGFP-HDQ74 in PC 12 cells; assay: Removal of mutant huntingtin, immunoblotting against EGFP; assay type: cell-based, rat; conditions: 24 hours treatment
Protocol: (§1) Removal of mutant huntingtin and mutant α-synuclein. PC 12 cells were transfected transiently with EGFP-HDQ74 plasmids for 24 hours using Lipofectamine Plus LTX reagent (Invitrogen) according to the manufacturer's protocol. The transfected cells were then treated with Onjisaponin B for 24 hours. The removal of mutant huntingtin, EGFP-HDQ74, was then quantitated by immunoblotting with antibody against EGFP. To measure the clearance of α-synuclein in cellular model, the overexpression of mutant A53T α-synuclein was first induced by the addition of doxycycline (1 μg/ml) (Sigma) for 24 hours, by using the doxycycline inducible PC 12 cell line transfected with A53T α-synuclein plasmid. The expression of mutant A53T α-synuclein was then switched off by removing doxycycline from medium. Cells were then incubated with Onjisaponin B for a further 24 hours. The clearance of mutant α-synuclein was then measured by immunoblotting with antibody against myc tag.

[5] = test system: mutant A53T α-synuclein in doxycycline inducible PC 12 cell line; assay: Clearance of mutant A53T α-synuclein, immunoblotting against myc tag; assay type: cell-based, rat; conditions: PC 12 cells, 24 hours after doxycycline removal
Protocol: as §1

[6] = test system: EGFP-HDQ74 transfected Atg7 wild-type mouse embryonic fibroblasts; assay: Mutant huntingtin aggregates and LC3 conversion in Atg7 wild-type MEFs; assay type: cell-based
Protocol: Quantification of mutant huntingtin aggregates in PC12, Atg7 wild type and deficient MEFs. In brief, both EGFP-HDQ74 transfected PC12, Atg7 wild-type and deficient mouse embryonic fibroblasts (MEFs) grown on coverslips in a 6-well plate were treated with indicated concentrations of Onjisaponin B. The cells were then fixed in 4% paraformaldehyde for 20 minutes at room temperature and then rinsed with PBS. Slides were mounted with FluorSave™ mounting media (Calbiochem, San Diego, Calif.) and examined by fluorescence microscopy. The number of cells with GFP-aggregates formation was examined under the Nikon ECLIPSE 80i microscope. Representative images were captured with CCD digital camera Spot RT3™ (Diagnostic Instruments, Inc., Melville, N.Y.). To quantify the clearance of mutant huntingtin, the percentage of cells with GFP-aggregates was calculated by counting the number of the cells with punctate GFP-LC3 fluorescence in GFP-positive cells. A minimum of 150 cells from 3 randomly selected fields was scored.
Detection of autophagic marker protein LC3 conversion and HTT 74 mutant aggregates. After drug treatments for Atg7 wild type and deficient MEFs, cells were harvested and lysed in RIPA buffer (Cell Signaling Technologies Inc., Beverly, Mass.). The cell lysates were then resolved by SDS-PAGE. […]

[7] = biological target: T1, α-synuclein oligomerization in HeLa cells transfected with GNS and SGC (Homo sapiens, UniProt P37840); assay: Bimolecular fluorescence complementation (BiFC) assay; assay type: cell-based; conditions: 24 hours at 30° C.
T1 construct: expressed in transfected cells; host or cells: HeLa cells
Protocol: Bimolecular fluorescence complementation (BiFC) assay. In brief, HeLa cells transfected with both GFP-N terminal-α-synuclein (GNS) and α-synuclein-GFP-C terminal (SGC) plasmids were incubated at 37° C. for 4 hours. Then, the transfected cells were incubated with different concentrations of Radix Polygalae ethanol extract or Onjisaponin B for a further 24 hours at 30° C.. Fluorescent signals upon complete GFP fluorophore reconstitution in cells were then detected by flow analysis.
Results: By using the bimolecular fluorescence complementation (BiFC) assay, the oligomerization of α-synuclein in living cells can be directly quantified. In brief, α-synuclein proteins fused with two different non-fluorescent GFP terminal fragments, (i) GFP-N terminal-α-synuclein (GNS) or (ii) α-synuclein-GFP-C terminal (SGC) respectively were used. Upon oligomerization of α-synuclein, the two non-fluorescent fractions of GFP will therefore reconstitute the complete GFP fluorophore and transmit GFP fluorescent signal within cells. This signal in turn can be quantified by flow cytometry analysis.

## COc1ccc(/C=C/C(=O)O[C@@H]2[C@H](O[C@@H]3O[C@@H](C)[C@H](O)[C@@H](O)[C@H]3O)[C@@H](O[C@@H]3O[C@@H](C)[C@H](O[C@@H]4OC[C@@H](O[C@@H]5O[C@H](CO)[C@H](O)[C@H](O)[C@H]5O)[C@H](O)[C@H]4O)[C@@H](O)[C@H]3O)[C@H](OC(=O)[C@]34CCC(C)(C)C[C@H]3C3=CC[C@@H]5[C@@]6(C)C[C@H](O)[C@H](O[C@@H]7O[C@H](CO)[C@@H](O)[C@H](O)[C@H]7O)[C@@](C)(C(=O)O)[C@@H]6CC[C@@]5(C)[C@]3(CO)CC4)O[C@@H]2C)cc1 [Onjisaponin B]
[1]
  LC3-II conversion (western blot): increase of LC3-II conversion
[1]; with 10 µg/mL E64D and pepstain A
  Rate of LC3-II formation in the presence of protease inhibitors (autophagic flux): increased the rate of LC3-II formation
[2]
  GFP-LC3 puncta formation in Atg7-knockout cells: not in Atg7-knockout mouse embryonic fibroblasts
[3]; Onjisaponin B 25 μM + 3-MA 5 mM
  Onjisaponin B-induced GFP-LC3 puncta formation in the presence of 3-Methyladenine: significant reduction
[3]; Onjisaponin B 25 μM + compound C 5 μM
  Onjisaponin B-induced GFP-LC3 puncta formation in the presence of AMPK inhibitor (compound C): significant reduction
[4]
  Clearance of overexpressed EGFP-tagged mutant huntingtin with 74 CAG repeats: enhanced the clearance
[5]
  Clearance of myc-tagged mutant A53T α-synuclein: accelerate the clearance
[6]
  Clearance of EGFP-HDQ74 inclusions in autophagy-wild type cells: enhanced the clearance of EGFP-HDQ74 inclusions
[6]; western blot
  LC3II formation in wild type Atg7 cells transfected with EGFP-HDQ74: LC3II formation in wild type Atg7 cells
[7]
  Oligomerization of α-synuclein (GFP fluorescent signal, flow analysis): inhibit the oligomerization of α-synuclein
